Consider 1 compound from PMC4906374, “Global Profiling and Inhibition of Protein Lipidation in Vector and Host Stages of the Sleeping Sickness Parasite Trypanosoma brucei” (ACS Infectious Diseases, 2016).

For the test, the target named is T1, TbNMT (Trypanosoma brucei, UniProt Q388H8).
T1 construct: gene Tb10.61.2550; native full-length enzyme in intact bloodstream form parasites; not purified
T1 sequence (Q388H8 1-446): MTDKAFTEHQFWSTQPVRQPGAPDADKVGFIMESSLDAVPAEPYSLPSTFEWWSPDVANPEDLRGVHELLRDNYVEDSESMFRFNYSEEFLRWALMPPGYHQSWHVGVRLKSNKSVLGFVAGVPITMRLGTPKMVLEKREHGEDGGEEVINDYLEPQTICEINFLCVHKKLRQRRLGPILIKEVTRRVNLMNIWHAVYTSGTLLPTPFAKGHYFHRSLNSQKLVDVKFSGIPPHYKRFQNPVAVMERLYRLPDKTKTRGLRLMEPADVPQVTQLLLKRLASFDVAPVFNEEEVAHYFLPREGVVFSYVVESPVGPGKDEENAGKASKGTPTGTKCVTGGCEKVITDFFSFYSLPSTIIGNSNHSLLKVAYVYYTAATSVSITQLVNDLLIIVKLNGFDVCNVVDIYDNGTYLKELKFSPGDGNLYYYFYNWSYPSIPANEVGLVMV
The test is described as follows: in-gel fluorescence of YnMyr tagging (CuAAC, NaOH-treated gels) in intact BSF parasites. The format is cell-based. The note with it: read-out: TC50 (tagging-IC50); 100 uM YnMyr, 1 h inhibitor pretreatment, 8 h labelling, 37 °C; whole-parasite value, not isolated enzyme.

For the compound `Cc1noc(C)c1NS(=O)(=O)c1c(Cl)cc(-c2ccnc(N3CCNCC3)c2)cc1Cl` [compound 2, inhibitor 2], the IC50 (as a rule, the point on the concentration scale where inhibition reaches its midpoint) worked out at 2.57 ± 0.04 µM.
